Source: patent EP1816136A1, “GPR7-SELECTIVE LIGAND AND USE THEREOF” (BANYU PHARMACEUTICAL CO., LTD., priority 2004, dated 2006)
Non-standard residues stand in square brackets, D forms with d. Residues, ends and D or L forms follow the SMILES beside them. Ava = NCCCCC(=O)O

How the values were obtained:
GPR7 [1] = biological target: T1, GPR7 (Homo sapiens, UniProt P48145); experiment: Measurement of activation capacity on GPR7 (CRE-BLA beta-lactamase reporter assay); type: cell-based; conditions: Table 1; HEK293/CRE-BLA cells expressing GPR7; forskolin 1 µM; 3 hours at 37°C
T1 construct: expressed in transfected cells; host or cells: HEK293/CRE-BLA cells (AURORA), expression vector pIRES-hygro (Clontech)
T1 sequence (P48145 1-328): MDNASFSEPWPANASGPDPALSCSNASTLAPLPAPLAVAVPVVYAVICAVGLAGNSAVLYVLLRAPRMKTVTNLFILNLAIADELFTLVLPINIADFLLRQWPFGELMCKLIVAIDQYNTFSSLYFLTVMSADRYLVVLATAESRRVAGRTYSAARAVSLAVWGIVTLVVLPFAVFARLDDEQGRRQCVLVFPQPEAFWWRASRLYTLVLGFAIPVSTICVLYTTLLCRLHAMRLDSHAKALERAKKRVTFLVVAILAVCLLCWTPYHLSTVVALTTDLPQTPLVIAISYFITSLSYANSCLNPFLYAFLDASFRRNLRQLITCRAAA
Excerpt: (§1) A cDNA sequence coding for human GPR7 or GPR8 [see Genomics, vol. 28, p. 84 (1995)] was amplified by the PCR method, and cloned using the expression vector pIRES-hygro (Clontech). The resulting expression vector was transfected into HEK293/CRE-BLA cells (AURORA) using the cationic lipid method [see Proceedings of the National Academy of Sciences of the United States of America, vol. 84, p. 7413 (1987)] to obtain GPR7 or GPR8 expression cells.
(§2) In accordance with the method of Zlakarmik (see Science, 1998, vol. 279, p. 84), the activity of various synthetic peptides on GPR7 or GPR8 was measured. HEK293/CRE-BLA cells which expressed GPR7 or GPR8 (prepared in (2) of Test Example 1) were washed twice with PBS(-) buffer solution (GIBCO-BRL), and then Cell-dissociation buffer (GIBCO-BRL) was added. The system was kept at 37°C for 3 minutes in a CO2 incubator, and a culture flask was tapped to liberate the cells from the flask. After the cells were harvested by centrifugation, the cells were suspended in an Opti-MEM culture medium (GIBCO-BRL) containing 0.1 % BSA (Sigma) to count the cells and prepare a cell suspension containing 8×10^5 cells/mL. To 2 µL of a DMSO solution containing each test compound with a concentration of 50 times an end concentration, 50 µL of the 0.1% BSA-containing Opti-MEM medium incorporating forskolin (Sigma) so as to have an end concentration of 1 µM was added to form a reaction solution. To this reaction solution, 50 µL of the above cell suspension was added to initiate the reaction, and the system was incubated for 3 hours at 37°C in a CO2 incubator.
(§3) Then, using a BLA assay kit (AURORA), a coloring matter-introduced buffer solution incorporating 12 µL of Solution A [1 mM CCF2-AM/anhydrous DMSO solution], 120 µL of Solution B [100 mg/mL Pluronic 127, 0.1% acetic acid/DMSO solution], and 2 mL of Solution C [24% (w/w) PEG-400, 18% TR40/H2O] was prepared. This coloring matter-introduced buffer solution (20 µL) was added to the above-mentioned cell reaction mixture to introduce a β-lactamase substrate (CCF2-AM) into the cells. After the system was allowed to stand for 1 hour at room temperature, the fluorescence intensities of the sample at an excitation wavelength of 409 nm, at a fluorescence wavelength of 460 nm (a β-lactamase hydrolyzate of CCF), and at 530 nm (CCF) were measured. With β-lactamase activity (fluorescence intensity at 460 nm/fluorescence intensity at 530 nm) as an indicator, the activity of each of various peptides on GPR7 or GPR8 was measured, and the 50% effective concentration (EC50) of the test compound was calculated.

GPR7 [2] = biological target: T1, GPR7; experiment: Binding inhibition test with [125I]-[Phe2]-hNPW(1-23), GPR7 membrane preparation; conditions: Table 1, membrane preparation of HEK293/CRE-BLA cells expressing GPR7, 1 hour at room temperature
Procedure: (§4) One nmol of [Phe2]-hNPW(1-23) (prepared in Synthesis Example 19) was dissolved in 5 µL of anhydrous DMSO, and the solution was mixed with 0.1M nickel chloride. Then, the mixture was mixed with 10 µL of a 0.00 1 % aqueous solution of hydrogen peroxide, 10 µL of an enzyme solution (lactoperoxidase (Sigma) adjusted to 10 µg/mL with a 0.1M HEPES buffer solution), and 37 Mbq/10 µL of Iodine-125 (Amersham), whereafter the resulting mixture was reacted for 60 minutes at room temperature. The reaction was terminated with the addition of 10 µL of 1% sodium azide, and then a radiolabeled peptide fraction was collected by a PD-10 gel filtration column (Amersham) to obtain [^125I]-[Phe2]-hNPW(1-23).
as §1
(§5) A membrane preparation prepared from the cells expressing GPR7 or GPR8 was incubated for 1 hour at room temperature in an assay buffer solution (25 mM Tris buffer solution, 150 mM NaCl, pH 7.4) together with a test compound and 28,000 cpm of [^125I]-[Phe2]-hNPW(1-23). Then, the system was filtered through the glass filter GF/C. After washing with 25 mM Tris buffer solution (pH 7.4), radioactivity on the glass filter was measured. Nonspecific binding was measured in the presence of 1 µM hNPW (prepared in Synthesis Example 1), and the 50% inhibition concentration (IC50 value) of the test compound against [Phe2]-hNPW(1-23) specific binding was calculated [see Molecular Pharmacology, vol. 55, 1101 (1999)].

GPR8 [3] = biological target: T2, GPR8 (Homo sapiens, UniProt P48146); experiment: Binding inhibition test with [125I]-[Phe2]-hNPW(1-23), GPR8 membrane preparation; conditions: Table 1, membrane preparation of HEK293/CRE-BLA cells expressing GPR8, 1 hour at room temperature
T2 construct: expressed in transfected cells; host or cells: HEK293/CRE-BLA cells (AURORA), expression vector pIRES-hygro (Clontech)
Procedure: as §4, §1, §5

GPR8 [4] = biological target: T2, GPR8; experiment: Measurement of activation capacity on GPR8 (CRE-BLA beta-lactamase reporter assay); type: cell-based; conditions: Table 1; HEK293/CRE-BLA cells expressing GPR8; forskolin 1 µM; 3 hours at 37°C; read-out: GPR8 (nM) EC 50
Excerpt: as §1, §2, §3

T2 sequence (P48146 whole entry): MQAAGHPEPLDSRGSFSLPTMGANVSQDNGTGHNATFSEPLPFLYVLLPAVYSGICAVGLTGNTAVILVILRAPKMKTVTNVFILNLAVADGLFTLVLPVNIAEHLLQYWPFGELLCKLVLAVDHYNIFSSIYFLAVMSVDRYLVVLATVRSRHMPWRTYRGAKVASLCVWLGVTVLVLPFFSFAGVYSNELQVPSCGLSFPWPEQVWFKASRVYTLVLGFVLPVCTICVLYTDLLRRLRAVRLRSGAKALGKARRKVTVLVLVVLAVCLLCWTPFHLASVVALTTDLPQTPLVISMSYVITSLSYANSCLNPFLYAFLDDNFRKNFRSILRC

SMILES	EC50 (GPR7 [1]) [nM]	IC50 (GPR7 [2]) [nM]	IC50 (GPR8 [3]) [nM]	EC50 (GPR8 [4]) [nM]
CC(C)C[C@H](NC(=O)CNC(=O)[C@H](CO)NC(=O)[C@H](CC(C)C)NC(=O)[C@H](CC(C)C)NC(=O)CNC(=O)[C@H](C)NC(=O)[C@H](C)NC(=O)[C@H](CCCNC(=N)N)NC(=O)CNC(=O)[C@@H](NC(=O)[C@H](CO)NC(=O)[C@H](Cc1ccc(O)cc1)NC(=O)[C@H](CO)NC(=O)[C@H](CO)NC(=O)[C@H](Cc1cnc[nH]1)NC(=O)CNC(=O)[C@H](C)NC(=O)[C@H](C)NC(=O)[C@@H]1CCCN1C(=O)[C@H](CCCCN)NC(=O)[C@H](Cc1ccc(O)cc1)NC(=O)[C@@H](N)Cc1c[nH]c2ccccc12)C(C)C)C(N)=O [compound 4]	0.24	0.23	24	0.86
CC(C)C[C@H](NC(=O)CNC(=O)[C@H](CO)NC(=O)[C@H](CC(C)C)NC(=O)[C@H](CC(C)C)NC(=O)CNC(=O)[C@H](C)NC(=O)[C@H](C)NC(=O)[C@H](CCCNC(=N)N)NC(=O)CNC(=O)CCCCNC(=O)CCCCNC(=O)[C@H](CCCCN)NC(=O)[C@H](Cc1ccc(O)cc1)NC(=O)[C@@H](N)Cc1c[nH]c2ccccc12)C(N)=O [compound 6] (H-WYK[Ava][Ava]GRAAGLLSGL-NH2)	2.2	0.47	300	94
CC(C)C[C@H](NC(=O)CNC(=O)[C@H](CO)NC(=O)[C@H](CC(C)C)NC(=O)[C@H](CC(C)C)NC(=O)CNC(=O)[C@H](C)NC(=O)[C@H](C)NC(=O)[C@H](CCCNC(=N)N)NC(=O)CNC(=O)CCCCNC(=O)[C@H](CCCCN)NC(=O)[C@H](Cc1ccc(O)cc1)NC(=O)[C@@H](N)Cc1c[nH]c2ccccc12)C(N)=O [compound 5] (H-WYK[Ava]GRAAGLLSGL-NH2)	1.7	0.55	310	280
CC(C)C[C@H](NC(=O)CNC(=O)[C@H](CO)NC(=O)[C@H](CC(C)C)NC(=O)[C@H](CC(C)C)NC(=O)CNC(=O)[C@H](C)NC(=O)[C@H](C)NC(=O)[C@H](CCCNC(=N)N)NC(=O)CNC(=O)CCCCNC(=O)CCCCNC(=O)CCCCNC(=O)CCCCNC(=O)[C@H](CCCCN)NC(=O)[C@H](Cc1ccc(O)cc1)NC(=O)[C@@H](N)Cc1c[nH]c2ccccc12)C(N)=O [compound 8] (H-WYK[Ava][Ava][Ava][Ava]GRAAGLLSGL-NH2)	1.2	1.1	360	51
CC(C)C[C@H](NC(=O)CNC(=O)[C@H](CO)NC(=O)[C@H](CC(C)C)NC(=O)[C@H](CC(C)C)NC(=O)CNC(=O)[C@H](C)NC(=O)[C@H](C)NC(=O)[C@H](CCCNC(=N)N)NC(=O)CNC(=O)CCCCNC(=O)CCCCNC(=O)CCCCNC(=O)[C@H](CCCCN)NC(=O)[C@H](Cc1ccc(O)cc1)NC(=O)[C@@H](N)Cc1c[nH]c2ccccc12)C(N)=O [compound 7] (H-WYK[Ava][Ava][Ava]GRAAGLLSGL-NH2)	0.48	0.09	260	77
